{"source": "paper PMC6934184", "about": "“Selective DNA-PKcs inhibition extends the therapeutic index of localized radiotherapy and chemotherapy” (The Journal of Clinical Investigation, 2019)", "target": "T1, DDR2 T654M (Homo sapiens, UniProt Q16832, T654M)", "T1 construct": "purchased Thermo Fisher Scientific (Life Technologies) SelectScreen", "T1 sequence (Q16832 22-855 T654M)": "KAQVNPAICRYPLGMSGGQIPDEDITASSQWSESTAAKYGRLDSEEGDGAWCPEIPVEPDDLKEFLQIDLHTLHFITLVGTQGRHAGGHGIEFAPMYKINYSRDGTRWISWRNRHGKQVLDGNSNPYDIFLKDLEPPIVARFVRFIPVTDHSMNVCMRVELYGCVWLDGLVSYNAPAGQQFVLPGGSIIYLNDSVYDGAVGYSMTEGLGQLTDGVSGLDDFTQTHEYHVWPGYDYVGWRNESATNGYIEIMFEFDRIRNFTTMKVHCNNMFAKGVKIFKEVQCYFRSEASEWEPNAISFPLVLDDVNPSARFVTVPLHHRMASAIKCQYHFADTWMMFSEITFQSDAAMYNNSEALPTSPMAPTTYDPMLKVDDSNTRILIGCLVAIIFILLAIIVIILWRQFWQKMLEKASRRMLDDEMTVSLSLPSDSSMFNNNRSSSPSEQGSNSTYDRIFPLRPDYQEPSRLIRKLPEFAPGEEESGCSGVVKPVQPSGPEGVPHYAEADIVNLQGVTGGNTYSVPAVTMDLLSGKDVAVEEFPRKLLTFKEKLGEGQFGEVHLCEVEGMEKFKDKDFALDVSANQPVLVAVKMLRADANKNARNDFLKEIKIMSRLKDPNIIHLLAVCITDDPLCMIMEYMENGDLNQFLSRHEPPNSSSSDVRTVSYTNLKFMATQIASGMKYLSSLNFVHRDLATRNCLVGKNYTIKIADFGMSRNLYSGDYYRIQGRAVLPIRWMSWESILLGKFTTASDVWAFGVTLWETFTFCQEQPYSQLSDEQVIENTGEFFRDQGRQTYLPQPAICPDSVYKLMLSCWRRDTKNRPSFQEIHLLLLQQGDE", "assay": "SelectScreen LanthaScreen", "format": "binding", "conditions": "read-out: % displacement", "outline": "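Percent values come from Thermo SelectScreen profiling of NU5455, combining activity and binding assays. CSF1R was run in Z'LYTE format at Km app ATP, and CAMK1 in Adapta format with ATP listed at 10.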", "data": [{"smiles": "CN(C(=O)CN1CCOCC1)c1ccc2sc3c(-c4cccc5c(=O)cc(N6CC7CCC(C6)O7)oc45)cccc3c2c1", "note": "[NU5455]", "values": [{"measurement": "inhibition at 1 µM", "value": 2.5, "unit": "%"}]}]}
